Experimental data published in US12433549B1, “Molecular imaging of the cochlea” (University of South Florida, priority 2023, dated 2025).

Key:
[1] = In vivo SPECT-CT imaging after intravenous tail vein injection of 201Tl; parameters: species or system CBA/CaJ mice
Experimental: To test whether or not 201Tl can pass through the cochlear intrastrial fluid blood barrier, so as to image K^+ in a bony structure like the cochlea using SPECT techniques, in vivo experiments were performed with CBA/CaJ mice. Young adult mice were injected with TlCl radioactive solution intravenously with a dose of ˜400 μCi/animal in the tail vein. The Siemens Inveon® multimodality microPET/SPECT/CT platform was used (mouse brain pinhole collimator with a total of 12 projections) to image the brain, cochlea and whole body. CT imaging was also carried out for anatomical referencing. […] One animal was imaged for five continuous days, and as expected, the SPECT signal decreased over that time period in the cochlea and other body parts.
The region of interest (ROI) was drawn for the cochlea using anatomical images from the CT scans. Similarly, radiation signals (mean image intensity) from the two sides (left and right cochleae) were equal (FIG. 4b), indicating symmetrical absorption of the ^201Tl for the peripheral auditory system (cochlea). […] This observation (^201Tl maximum accumulation in the kidney) was consistent with the reported literature as ^201Tl is known to maximally accumulate there 17,18
After baseline phantom in vitro experiments were completed, in vivo imaging experiments were conducted using young adult CBA/CaJ mice (2-3 months old, n=6, 3 females and 3 males) to determine whether 201Tl can pass through the cochlear intrastrial fluid/blood barrier and if the bony cochlea can be imaged using SPECT. Each mouse was injected with approximately 400 μCi ^201Tl radiation into tail veins through a catheter. Similar to the in vitro phantom experiments, a total of 12 projections over a 360 arc were used to collect the images. During the imaging data collection, animals were under gas anesthesia (1-2% isoflurane) in an air-warmed imaging chamber (Harvard Apparatus, Cambridge, MA) to keep body temperature constant at 37° C., and the breathing rate and pattern were continuously monitored. For anatomical referencing of the cochlea, CT imaging was also conducted in conjunction with SPECT. The region of Interest (ROI) was drawn with the help of the CT referencing. Images were reconstructed using maximum-likely-hood expectation maximization (MLEM) algorithm, and finally, 3-D images were reconstructed with scattering and attenuation corrections.

[2] = Ex vivo SPECT-CT imaging and radioactivity measurements (gamma spectroscopy) of dissected cochleae and body tissues; assay type: in vivo, CBA/CaJ mice
Experimental: For further confirmation, a pair of cochleae from a single mouse were dissected and ex vivo measurements (SPECT-CT image and radioactivity measurements-gamma spectroscopy) were carried out. […] Mean intensity and total photons were calculated from both the cochleae SPECT images. […] Moreover, energy spectra were measured using a BioDEx ion chamber and both cochleae had the same spectra, with the peak energy around 68 KeV—same as ^201Tl energy peak (FIG. 6e). These ex vivo measurements further confirm the equal distribution of ^201Tl for both inner ears.
In addition, the radiation signal was measured from various body parts, in comparison to the cochlea. The measurements were calculated per gm of tissue (specific activity) to make comparisons among various tissues and specific activities were further normalized with brain specific activity.
At the end of the imaging session, animals were sacrificed and ex vivo experiments were carried out in which radiation signals were measured from various body regions, including the brain and cochlea. A pair of cochleae were dissected and ex vivo measurements were done using both SPECT-CT imaging as well as radioactivity measurements (BioDex 500 ion chamber; gamma spectroscopy). Images were reconstructed from SPECT-CT data as per the same algorithms and protocols used for the in-vivo experiments.

## [Cl][201Tl] [^201Tl, Thallium-201]
[1]; 3 males vs 3 females
  Sex difference in cochlear SPECT signal (mean image intensity): no sex difference
[1]; first scan after i.v. injection
  Time after injection at which SPECT radiation signals were observed from the cochlea: within minutes
[1]; in vivo SPECT
  Radiation signals (mean image intensity), left vs right cochleae: equal
[1]; in vivo SPECT, ROI drawn with CT, ~400 μCi/animal i.v. tail vein
  Average cochlear SPECT signal relative to brain signal: about two
[1]; in vivo SPECT-CT of mouse cochlea
  Entry of the radiotracer into the bony cochlea: can enter the bony cochlea
[1]; one animal imaged for five continuous days
  Change of SPECT signal in the cochlea and other body parts over time: decreased
[1]; whole body SPECT, ~400 μCi/animal i.v.
  Site of maximum accumulation, whole body SPECT imaging: kidney
[2]; ex vivo SPECT-CT of a dissected pair of cochleae from a single mouse
  Mean intensity and total photons, cochlea 1 vs cochlea 2: no quantitative difference
[2]; ex vivo radioactivity measurements
  Specific activity (per gm of tissue, normalized to brain) of the cochlea compared with other body parts: highest signal among most body parts, except kidney
[2]; ex vivo, gamma spectroscopy of body tissues
  Cochlear radioactivity signal relative to brain: 2.2 times
